Laboratory results taken from US7612107B2, “Treatment and inhibition of disease conditions using flexible heteroarotinoids” (The Board of Regents of the University of Oklahoma, priority 2005, dated 2009).
Read-outs that look alike come from different tables or passages of the source.

Tests used:
Raldh2-/- embryos = details: for No. of −/− rescued / No. of −/− unrescued: E10.25; for Teratogenesis: mouse, in vivo, po
Protocol: Briefly, retinoids were dissolved in corn oil and administered orally to timed-pregnant Raldh2_/_mice at 12-h intervals on E7.25, E7.75, and E8.25. Dosages varied from 0.025 to 25 mg/kg. At E10.25, embryos were analyzed morphologically to determine whether Raldh2_/_embryos were rescued or whether wild-type embryos had suffered teratogenesis. Detection of embryonic RA was performed in situ in embryos carrying the RARE-lacZ RA-reporter gene by staining for beta-galactosidase activity for 10 h (45).
A mouse model that lacks retinaldehyde dehydrogenase (Raldh2) due to null mutations was used to test the ability of Flex-Hets to substitute for retinoic acid (RA) and induce birth defects. […] We examined the relative ability of all-trans-RA, 9-cis-RA, receptor-specific synthetic retinoids and retinoic acid receptor independent Flex-Hets to rescue the Raldh2_/_embryonic lethal phenotype.

NF-κB = NF-κB luciferase reporter assay in A2780 cultures; format: cell-based; details: 10 μM SHetA2
Protocol: FIG. 15. SHetA2 Inhibition of NF-κB. A2780 cultures were transfected with the NF-κB reporter and treated with 10 μM SHetA2 for the indicated times. Cell lysates were prepared and evaluated for luciferase activity which was normalized for protein concentration.
Because both TP and TSP4 have DNA binding sites for the NFκB transcription factor in their promoter, the ability of SHetA2 to inhibit activity of NF-κB in ovarian cancer cultures was tested using a luciferase reporter plasmid driven by NF-κB sites in the promoter. […] Inhibition increased over the 4 hour evaluation time (FIG. 15).

[1] = test system: Caki renal cancer xenografts; assay: Caki renal cancer xenograft tumor model; format: in vivo, mouse
Protocol: FIG. 12. Various Xenograft tumors stained with CD34 antibodies (brown) to identify endothelium. The B16 mouse melanoma cell line was established as a syngeneic tumor in an immunocompetent mouse model and the human Caki renal cancer and A2780 ovarian xenograft tumors in immunocompromised mice. The treated mice were gavaged with 60 mg/kg/day SHetA2 and the untreated were gavaged with solvent only. The tumors were excised and sections were stained with the anti-CD34 antibody to detect endothelial cells (brown stain).
FIG. 20. Mice harboring Caki renal cancer xenografts were treated with 60 mg/kg/day SHetA2 or PEG400 vehicle for 15 days. After another 15 days of growth, the tumors were removed, fixed, embedded and sections. Sections were stained with PAS to identify glycoproteins and lysosomes. The untreated tumor is on the left and the treated tumor is on the right.
Survival was the primary endpoint of those studies. […] Tumor growth was the primary endpoint of the renal cancer study.

OVCAR-3 xenograft tumors = assay: Histochemical and immunohistochemical evaluation of xenograft tumors (glands, MUC-1, TUNEL); format: in vivo, mouse; details: 10 mg/kg/day gavage, end of treatment
Protocol: Statistically significant higher levels of glands and MUC-1 expression in the tumors of treated animals in comparison to controls treated with sesame oil are indicated by asterisks (*) and were determined by t-tests. For gland formation, p<0.001 for SHetA2, p=0.097 for SHetA4, p=0.001 for SHet50, and p=0.007 for 4-HPR. For MUC-1 scores, p=0.011 for SHetA2, p=0.050 for SHetA4, p=0.040 for SHet50, and p=0.001 for 4-HPR. The higher levels of TUNEL scores in the tumors of treated animals in comparison to control animals approached significance (t-test, p=0.27 for SHetA2, p=0.48 for SHetA4, p=0.20 for SHet50, and p=0.12 for 4-HPR).
On the last day of treatment, the animals were sacrificed and then the tumors were removed, fixed in neutral buffered formalin and embedded in paraffin. […] MUC-1 expression was detected in tumor sections using a mouse monoclonal antibody to human MUC-1 (Pharmingen, San Diego, Calif.) and the Histostain-Plus AEC Kit (Zymed Laboratories, San Francisco, Calif.) according to manufacturers instructions. […] Tumor sections were scored for number of glands (quantified in one H&E stained sections and 3 MUC-1-stained sections) and MUC-1 and TUNEL staining (based on staining intensity and percent positive cells). […]

SMILES: CC1(C)CC(C)(C)c2cc(NC(=S)Nc3ccc([N+](=O)[O-])cc3)ccc2S1 [SHetA2]
- Rescue of Raldh2−/− embryos (in words) (Raldh2-/- embryos; 2.5 mg/kg): no rescue
- Rescue of Raldh2−/− embryos (in words) (Raldh2-/- embryos; 10 or 25 mg/kg): no rescue
- No. of −/− rescued (Raldh2-/- embryos; Dose 2.5 mg/kg oral): 0
- No. of −/− unrescued (Raldh2-/- embryos; Dose 2.5 mg/kg oral): 1
- No. of −/− rescued (Raldh2-/- embryos; Dose 10 mg/kg oral): 0
- No. of −/− unrescued (Raldh2-/- embryos; Dose 10 mg/kg oral): 5
- No. of −/− rescued (Raldh2-/- embryos; Dose 25 mg/kg oral): 0
- No. of −/− unrescued (Raldh2-/- embryos; Dose 25 mg/kg oral): 1
- Teratogenesis (Raldh2-/- embryos; 2.5 mg/kg): 0
- Teratogenesis (Raldh2-/- embryos; 10 mg/kg): 0
- Teratogenesis (Raldh2-/- embryos; 25 mg/kg): 0
- Time to inhibition of NF-κB activity (NF-κB): ≤ 30 min
- PAS stain of renal xenograft tumors ([1]; 60 mg/kg/day for 15 days, treated vs untreated tumors): increase in general glycoprotein expression and lysosomal staining
- Tumor growth ([1]; renal cancer model): decreased tumor growth
- Development of blood vessels inside tumors (anti-CD34 staining) ([1]; renal, oral 60 mg/kg/day): inhibited the development of blood vessels
- MUC-1 expression in xenograft tumors (OVCAR-3 xenograft tumors; vs control): increase staining
- Gland formation in xenograft tumors (OVCAR-3 xenograft tumors; vs untreated control): greatest degree of gland induction
